In patent US10941157B2, “Pesticidal compositions and uses thereof” (Gilead Apollo, LLC, priority 2015, dated 2021):
Values after ≈ are worked out from the molar mass of the structure shown. Where two headings read alike, the source gives them in different places.

Experiments:
Assay type in all cases: cell-based
[1] = system: Fusarium moniliforme (Fm); test: In vitro pathogen growth inhibition assay, Fm; conditions: Fusarium verticillioides
Procedure, shortened: (§1)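 Spores in 17% V8 liquid medium, or 1.5 mm Rs mycelial plugs in ¼ PDB, incubated with compound; final concentration checked by OD600 for precipitation. OD readings at 24 and 48 h, blank-subtracted, plus visual ratings; value is concentration giving ≥90% growth inhibition.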

[2] = system: Septoria tritici (St); test: In vitro pathogen growth inhibition assay, St; conditions: Zymoseptoria tritici, 48 h
Procedure, shortened: as §1

[3] = system: Fusarium virguliforme (Fv); test: In vitro pathogen growth inhibition assay, Fv
Procedure, shortened: (§2)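 Value reported is the compound concentration reaching ≥90% growth inhibition, from OD readings at 24 and 48 h after blank subtraction, confirmed visually. Inoculum was spores diluted in 17% V8 medium, except Rs, using 1.5 mm mycelial plugs in ¼ PDB; actual compound concentration corrected via OD600.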

[4] = system: Phytophthora capsici (Pc); test: In vitro pathogen growth inhibition assay, Pc; conditions: 48 h
Procedure, shortened: as §2

[5] = system: Diplodia maydis (Dm); test: In vitro pathogen growth inhibition assay, Dm; conditions: Stenocarpella maydis, 48 h
Procedure, shortened: as §2

[6] = system: Collectotrichum graminicola (Cg); test: In vitro pathogen growth inhibition assay, Cg; conditions: 48 h
Procedure, shortened: as §1

[7] = system: Rhizoctonia solani (Rs); test: In vitro pathogen growth inhibition assay, Rs (mycelial plugs); conditions: Rhizoctonia solani, 48 h, mycelial plugs
Procedure, shortened: as §2

[8] = system: Saccharomyces cerevisiae (Sc); test: Yeast growth inhibition assay; conditions: for IC75: Saccharomyces cerevisiae, ≥75% inhibition, read-out: Compound Concentration (ppm) sufficient for ≥75% inhibition, Sc
Description: Both tables list the concentration of each compound that was sufficient to ≥90% inhibition of growth for each of the fungal pathogens listed above. In addition, some of compounds were tested in a yeast growth inhibition assay for Saccharomyces cerevisiae (Sc). Table 2 lists the concentration of the tested compound that was sufficient to ≥75% inhibition of Saccharomyces cerevisiae (Sc).

[9] = system: Botrtyis cinerea (Bc); test: In vitro pathogen growth inhibition assay, Bc; conditions: 48 h
Procedure, shortened: as §1

[10] = ≥90% inhibition, 48 hours vs 2% DMSO control, read-out: Compound Concentration (ppm) sufficient for ≥90% inhibition of growth, Fm
[11] = ≥90% inhibition, 48 hours vs 2% DMSO control, read-out: Compound Concentration (ppm) sufficient for ≥90% inhibition of growth, St
[12] = ≥90% inhibition, 48 hours vs 2% DMSO control, read-out: Compound Concentration (ppm) sufficient for ≥90% inhibition of growth, Fv
[13] = ≥90% inhibition, 48 hours vs 2% DMSO control, read-out: Compound Concentration (ppm) sufficient for ≥90% inhibition of growth, Pc
[14] = ≥90% inhibition, 48 hours vs 2% DMSO control, read-out: Compound Concentration (ppm) sufficient for ≥90% inhibition of growth, Dm
[15] = ≥90% inhibition, 48 hours vs 2% DMSO control, read-out: Compound Concentration (ppm) sufficient for ≥90% inhibition of growth, Cg
[16] = ≥90% inhibition, 48 hours vs 2% DMSO control, read-out: Compound Concentration (ppm) sufficient for ≥90% inhibition of growth, Rs
[17] = ≥90% inhibition, 48 hours vs 2% DMSO control, read-out: Compound Concentration (ppm) sufficient for ≥90% inhibition of growth, Bc
[18] = ≥90% growth inhibition, 48 hours, vs 2% DMSO control, read-out: Compound Concentration (ppm) sufficient for ≥90% inhibition of Fm
[19] = ≥90% growth inhibition, 48 hours, vs 2% DMSO control, read-out: Compound Concentration (ppm) sufficient for ≥90% inhibition of St
[20] = ≥90% growth inhibition, 48 hours, vs 2% DMSO control, read-out: Compound Concentration (ppm) sufficient for ≥90% inhibition of Fv
[21] = ≥90% growth inhibition, 48 hours, vs 2% DMSO control, read-out: Compound Concentration (ppm) sufficient for ≥90% inhibition of Pc
[22] = ≥90% growth inhibition, 48 hours, vs 2% DMSO control, read-out: Compound Concentration (ppm) sufficient for ≥90% inhibition of Dm
[23] = ≥90% growth inhibition, 48 hours, vs 2% DMSO control, read-out: Compound Concentration (ppm) sufficient for ≥90% inhibition of Cg
[24] = ≥90% growth inhibition, 48 hours, vs 2% DMSO control, read-out: Compound Concentration (ppm) sufficient for ≥90% inhibition of Rs
[25] = ≥90% growth inhibition, 48 hours, vs 2% DMSO control, read-out: Compound Concentration (ppm) sufficient for ≥90% inhibition of Bc

SMILES	IC90 [1, 10] [µg/mL]	IC90 [2, 11] [µg/mL]	IC90 [3, 12] [µg/mL]	IC90 [4, 13] [µg/mL]	IC90 [5, 14] [µg/mL]	IC90 [6, 15] [µg/mL]	IC90 [7, 16] [µg/mL]	IC75 [8] [µg/mL]	IC90 [9, 17] [µg/mL]	IC90 [1, 18] [µg/mL]	IC90 [2, 19] [µg/mL]	IC90 [3, 20] [µg/mL]	IC90 [4, 21] [µg/mL]	IC90 [5, 22] [µg/mL]	IC90 [6, 23] [µg/mL]	IC90 [7, 24] [µg/mL]	Compound Concentration (ppm) sufficient for ≥75% inhibition of Sc [8] [ppm]	IC90 [9, 25] [µg/mL]
CCOC(=O)c1sc2c(c1C)c(=O)n(C(C)(C)C(N)=O)c(=O)n2C[C@H](OC(C)C)c1ccccc1OC [Compound I-155]	2 (≈ 3.76 µM)	> 50	10 (≈ 18.8 µM)	> 50	10 (≈ 18.8 µM)	50 (≈ 94.1 µM)	50 (≈ 94.1 µM)	33.3 (≈ 62.6 µM)	2 (≈ 3.76 µM)									
COc1ccccc1[C@H](Cn1c(=O)n(C(C)(C)C(=O)N2CCCC2)c(=O)c2c(C)c(-c3ncco3)sc21)O[C@H]1CC[C@@H](O)CC1 [Compound I-111]	0.4 (≈ 0.628 µM)	50 (≈ 78.5 µM)	2 (≈ 3.14 µM)	> 50	10 (≈ 15.7 µM)	10 (≈ 15.7 µM)	10 (≈ 15.7 µM)	3.7 (≈ 5.81 µM)	2 (≈ 3.14 µM)									
COc1ccccc1[C@H](Cn1c(=O)n(C(C)(C)C(=O)NC(C)C)c(=O)c2c(C)c(-c3ncco3)sc21)OC(C)C [Compound I-001]	0.08 (≈ 0.141 µM)	> 10	0.4 (≈ 0.703 µM)	> 50	2 (≈ 3.52 µM)	≥ 2	50 (≈ 87.9 µM)	1.2 (≈ 2.11 µM)	≥ 0.4									
COc1ccccc1[C@H](Cn1c(=O)n(C(C)(C)C(N)=O)c(=O)c2c(C)c(-c3ncco3)sc21)OC1CCOCC1 [Compound I-145]	2 (≈ 3.52 µM)	> 50	> 50	> 50	50 (≈ 87.9 µM)	50 (≈ 87.9 µM)	> 50	> 33	50 (≈ 87.9 µM)									
COc1ccccc1[C@H](Cn1c(=O)n(C(C)(C)C(N)=O)c(=O)c2c(C)c(-c3ncco3)sc21)O[C@H]1CC[C@@H](O)CC1 [Compound I-100]	0.4 (≈ 0.686 µM)	≥ 50	10 (≈ 17.2 µM)	> 50	2 (≈ 3.43 µM)	50 (≈ 85.8 µM)	50 (≈ 85.8 µM)	1.2 (≈ 2.06 µM)	2 (≈ 3.43 µM)									
COc1ccccc1[C@H](Cn1c(=O)n(C(C)(C)C(=O)OCc2ccccc2)c(=O)c2c(C)c(-c3ncco3)sc21)OC1CCC(=O)CC1 [Compound I-107]	0.4 (≈ 0.595 µM)	> 50	> 50	> 50	≥ 0.4	> 50	> 50	> 33.3	0.4 (≈ 0.595 µM)									
COc1ccccc1[C@H](Cn1c(=O)n(C(C)(C)C(=O)NC(C)C)c(=O)c2c(C)c(-c3ncco3)sc21)OC1CCC(=O)CC1 [Compound I-013]	0.08 (≈ 0.128 µM)	≥ 10	2 (≈ 3.21 µM)	> 50	0.4 (≈ 0.642 µM)	10 (≈ 16.1 µM)	10 (≈ 16.1 µM)	0.14 (≈ 0.225 µM)	0.4 (≈ 0.642 µM)									
CCNC(=O)C(C)(C)n1c(=O)c2c(C)c(-c3ncco3)sc2n(C[C@H](OC2CCC(=O)CC2)c2ccccc2OC)c1=O [Compound I-105]	0.4 (≈ 0.657 µM)	> 50	10 (≈ 16.4 µM)	> 50	10 (≈ 16.4 µM)	50 (≈ 82.1 µM)	> 50	1.2 (≈ 1.97 µM)	2 (≈ 3.29 µM)									
COc1ccccc1[C@H](Cn1c(=O)n(C(C)(C)C(=O)N2CCCCC2)c(=O)c2c(C)c(-c3ncco3)sc21)OC1CCOCC1 [Compound I-004]	0.08 (≈ 0.126 µM)	> 10	2 (≈ 3.14 µM)	> 50	2 (≈ 3.14 µM)	2 (≈ 3.14 µM)	10 (≈ 15.7 µM)	3.7 (≈ 5.81 µM)	0.4 (≈ 0.628 µM)									
COc1ccc(F)cc1[C@H](Cn1c(=O)n(C(C)(C)C(N)=O)c(=O)c2c(C)c(-c3ncco3)sc21)O[C@H]1CC[C@@H](O)CC1 [Compound I-103]	0.4 (≈ 0.666 µM)	> 10	2 (≈ 3.33 µM)	> 50	10 (≈ 16.6 µM)	50 (≈ 83.2 µM)	50 (≈ 83.2 µM)	1.2 (≈ 2 µM)	2 (≈ 3.33 µM)									
CCOC(=O)c1sc2c(c1C)c(=O)n(C(C)(C)C(=O)N1CCCCC1)c(=O)n2C[C@H](OC1CCOCC1)c1ccccc1OC [Compound I-168]										≥ 0.4	≥ 10	≥ 0.4	> 50	2 (≈ 3.12 µM)	0.4 (≈ 0.623 µM)	2 (≈ 3.12 µM)	1.2	0.4 (≈ 0.623 µM)
COc1ccccc1[C@H](Cn1c(=O)n(C(C)(C)C(=O)NC(C)C)c(=O)c2c(C)c(-c3ncco3)sc21)OC1CCOCC1 [Compound I-011]	0.08 (≈ 0.131 µM)	50 (≈ 81.9 µM)	2 (≈ 3.27 µM)	> 50	2 (≈ 3.27 µM)	2 (≈ 3.27 µM)	10 (≈ 16.4 µM)	1.2 (≈ 1.96 µM)	0.4 (≈ 0.655 µM)									
CCOC(=O)c1sc2c(c1C)c(=O)n(C(C)(C)C(=O)NC(C)C)c(=O)n2C[C@H](OC1CCOCC1)c1ccccc1OC [Compound I-008]	0.08 (≈ 0.13 µM)	> 10	2 (≈ 3.25 µM)	> 50	2 (≈ 3.25 µM)	2 (≈ 3.25 µM)	10 (≈ 16.2 µM)	3.7 (≈ 6.01 µM)	0.4 (≈ 0.65 µM)									
CCNC(=O)C(C)(C)n1c(=O)c2c(C)c(-c3ncco3)sc2n(C[C@H](OC2CCOCC2)c2ccccc2OC)c1=O [Compound I-169]										≥ 0.4	> 50	50 (≈ 83.8 µM)	> 50	≥ 10	50 (≈ 83.8 µM)	> 50	11.0	10 (≈ 16.8 µM)
COc1ccccc1[C@H](Cn1c(=O)n(C(C)(C)C(=O)N2CCCCC2)c(=O)c2c(C)c(-c3ncco3)sc21)OC1CCC(=O)CC1 [Compound I-106]	0.4 (≈ 0.617 µM)	> 50	2 (≈ 3.08 µM)	> 50	2 (≈ 3.08 µM)	10 (≈ 15.4 µM)	50 (≈ 77.1 µM)	33.3 (≈ 51.3 µM)	2 (≈ 3.08 µM)									
COc1ccc(F)cc1[C@H](Cn1c(=O)n(C(C)(C)C(N)=O)c(=O)c2c(C)c(-c3ncco3)sc21)OCC1CCC(O)CC1 (stereo partly drawn) [Compound I-104]	0.4 (≈ 0.651 µM)	> 50	10 (≈ 16.3 µM)	> 10	10 (≈ 16.3 µM)	> 50	10 (≈ 16.3 µM)	11 (≈ 17.9 µM)	2 (≈ 3.25 µM)									
COc1ccc(F)cc1[C@H](Cn1c(=O)n(C(C)(C)C(N)=O)c(=O)c2c(C)c(-c3ncco3)sc21)OC1CCOCC1 [Compound I-101]	0.4 (≈ 0.682 µM)	> 50	10 (≈ 17 µM)	50 (≈ 85.2 µM)	10 (≈ 17 µM)	10 (≈ 17 µM)	50 (≈ 85.2 µM)	3.7 (≈ 6.31 µM)	10 (≈ 17 µM)									
CCNC(=O)C(C)(C)n1c(=O)c2c(C)c(-c3ncco3)sc2n(C[C@H](O[C@H]2CC[C@@H](O)CC2)c2ccccc2OC)c1=O [Compound I-010]	0.08 (≈ 0.131 µM)	> 50	2 (≈ 3.27 µM)	> 50	≥ 2	50 (≈ 81.9 µM)	50 (≈ 81.9 µM)	0.4 (≈ 0.655 µM)	0.4 (≈ 0.655 µM)									
CCNC(=O)C(C)(C)n1c(=O)c2c(C)c(C(=O)OCC)sc2n(C[C@H](OC(C)C)c2ccccc2OC)c1=O [Compound I-108]	0.4 (≈ 0.715 µM)	> 50	2 (≈ 3.57 µM)	> 50	10 (≈ 17.9 µM)	10 (≈ 17.9 µM)	50 (≈ 89.3 µM)	11.1 (≈ 19.8 µM)	2 (≈ 3.57 µM)									
